Values of other authors, collected in patent US7422607B2, “Anti-calcification treatments for heart valves and vascular grafts” (priority 2004, dated 2008).

Conditions: buffer system described by Giradot (U.S. Pat. No. 4,976,733)

Solubility in the buffer system: extremely low solubility
Compound: CCCCCCCC/C=C\CCCCCCC(N)C(=O)O (stereo not drawn) [alpha amino oleic acid]
